Like-named read-outs stand apart in the source and are kept apart here.
Key:
[1] = tested on: CLP-induced systemic inflammation; experiment: CLP-induced systemic inflammation (plasma inflammatory cytokines); format: in vivo, mouse; conditions: male ICR mice, drug once before CLP, plasma 8 hours after CLP
Protocol: (§1) A mouse was anesthetized with pentobarbital (10 mg/kg, intraperitoneally) and a small abdominal midline incision was made to expose the cecum thereof. Subsequently, the cecum was ligated at approximately 2 cm with a silk thread and punctured twice with an 18 G needle (manufactured by Terumo Corporation). Then, the abdomen was closed.
Sham mice (sham operation group) were subjected to the same operation except the ligation and puncture of the cecum. […]
The levels of BUN and creatinine in blood were measured by using a DRI-CHEM slide and LabAssay creatinine, respectively, according to the protocols. The level of inflammatory cytokines in plasma was measured by an Elisa kit according to the protocol.
A CLP operation or a sham operation was performed on male ICR mice.
Drugs were administered once before the CLP operation or the sham operation. […] Sivelestat (mg/kg) was intraperitoneally administered. EBD (Evans blue dye) (30 mg/kg) was administered intravenously 8 hours after the CLP operation. Plasma samples were prepared and the level of inflammatory cytokines in plasma was measured.
A CLP operation or a sham operation was performed on a male ICR mouse. […] A plasma sample was prepared 8 hours after the CLP investigation and the levels of BUN and creatinine (Test A) and the level of inflammatory cytokines (Test B) were measured.
A CLP operation or a sham operation was performed on a male ICR mouse. NAC (mg/kg) was administered intraperitoneally or unmodified SOD (kU/kg) was administered intravenously, once before the CLP operation. A plasma sample was prepared 8 hours after the CLP operation and the levels of BUN and creatinine (Test A) and the level of inflammatory cytokines (Test B) were measured.

[2] = tested on: reactive oxygen species (ROS); experiment: In vivo imaging of reactive oxygen species (ROS), CLP model; parameters: species or system mouse; conditions: drug once before CLP, L-012 75 mg/kg 4 hours after the CLP operation
Protocol: In the case of the CLP model, the mouse was euthanized 2 minutes after injection of L-012, subjected to abdominal midline incision, and imaged (five-minute intervals).
Male ICR mice were subjected to a CLP operation. Dexamethasone (200 μg/mouse) was administered intravenously once before the CLP operation (Tests A and C). Sivelestat (100 mg/kg) was administered intraperitoneally (Tests B and D). […] The sum intensity of ROS was determined by SlideBook6 software (Tests C and D).

[3] = tested on: reactive oxygen species (ROS)
Protocol: Measurement of reactive oxygen species (ROS) in a mouse was performed by in vivo imaging analysis with some modifications.
An imaging system (Lumazone, in vivo imaging system, SHOSHIN EM, Okazaki, Japan) including a chamber equipped with an electron multiplying CCD camera was used. L-012 (in saline), which is a luminescent probe, was administered to the mouse intravenously at 75 mg/kg.
In the case of the LPS and MV models, the mouse was euthanized 5 minutes after injection of L-012, and the lung thereof was anatomized promptly and imaged (five-minute intervals).
The data were analyzed by using SlideBook6 software (Intelligent Imaging Innovations, Inc., Denver, CO).
CLP operation (Tests A and B), LPS administration (Tests C and D), and MV treatment (Tests E and F) were performed as described above. […] A luminescent probe (L-012) (75 mg/kg) was administered 4 hours after the CLP operation, 6 hours after the LPS administration, and 2 hours after the MV treatment. An abdominal cavity (Test A) or a lung (Tests C and E) of the mouse was imaged using a Lumazone in vivo imaging system. The sum intensity of reactive oxygen species (ROS) was determined by Slide Book6 software (Tests B, D, and F).

[4] = tested on: mechanical ventilator (MV)-induced lung injury; experiment: Mechanical ventilator (MV)-induced lung injury and change of lung mechanics; format: in vivo, mouse; conditions: male ICR mice
Protocol: A mechanical ventilator for small animals was used to induce ventilator-induced lung injury (VILI). After a mouse was anesthetized with pentobarbital (10 mg/kg, intraperitoneally), tracheotomy was performed and an 8 mm metal tube was inserted into the trachea thereof. The mouse was mechanically ventilated with a tidal volume of 17.5 mL/kg, a positive end-expiratory pressure of 0 cm H2O, and a rate of 150 breaths/min.
Total respiratory elastance was measured every 30 minutes for 120 minutes by a snapshot technique.
The data were analyzed by using FlexiVent software (version 5.3 SCIREQ).
(§2) For a quantitative examination of the permeability of an organ, Evans blue (EBD) (30 mg/kg) was administered to the mouse intravenously 2 hours before sacrificing the mouse. Tissue (lung, liver, and kidney) specimens were cut into pieces and incubated with a […] for 24 hours at 60° C. The specimens were centrifuged to obtain supernatants and the quantity of EBD was determined by using absorbance at 620 nm of the specimens.
Firstly, the wet weight of a lung was measured to determine a wet-to-dry weight ratio of the lung. Then, the lung was dried at 60° C. overnight and reweighed to obtain the dry weight thereof.
A tissue specimen was fixed in 10% neutral buffered formalin for 24 hours and then embedded in paraffin before being cut into a section 4 μm thick. […]
All the scanned images were analyzed using NDP-view2 software (Hamamatsu Photonics K.K.) and Image J software. […]
EBD (Evans blue dye) (30 mg/kg) was simultaneously administered intravenously, extracted from the lung 2 hours after the MV treatment, and measured (Test A).
The wet-to-dry weight ratio of the lung was determined 2 hours after the MV treatment (Test B). […]
The lesion area was determined by ImageJ software (Test D).
Total respiratory elastance was measured every 30 minutes for 120 minutes (Test E). […]
The wet-to-dry weight ratio of the lung was determined 2 hours after the MV treatment (Tests A and C). Total respiratory elastance was measured every 30 minutes for 120 minutes (Tests B and D).

[5] = tested on: CLP-induced multiple organ failure; experiment: CLP-induced multiple organ failure (Evans blue vascular permeability, BUN, creatinine); format: in vivo, mouse; conditions: male ICR mice, drug once before CLP, plasma 8 hours after CLP
Protocol: as §1
(§3) Sham mice (sham operation group) were subjected to the same operation except the ligation and puncture of the cecum.
A mouse was anesthetized with isoflurane and 1 mg/kg LPS (in 0.9% NaCl) was administered thereto intratracheally once using a micropipette (P200). […]
For a quantitative examination of the permeability of an organ, Evans blue (EBD) (30 mg/kg) was administered to the mouse intravenously 2 hours before sacrificing the mouse. […] The specimens were centrifuged to obtain supernatants and the quantity of EBD was determined by using absorbance at 620 nm of the specimens.
The levels of BUN and creatinine in blood were measured by using a DRI-CHEM slide and LabAssay creatinine, respectively, according to the protocols. The level of inflammatory cytokines in plasma was measured by an Elisa kit according to the protocol. […]
Drugs were administered once before the CLP operation or the sham operation. […] Two hours later, EBD was extracted from the kidney and liver and measured. […]

[6] = tested on: lipopolysaccharide (LPS)-induced lung injury
Protocol: A mouse was anesthetized with isoflurane and 1 mg/kg LPS (in 0.9% NaCl) was administered thereto intratracheally once using a micropipette (P200). […] In the case of sivelestat, 10 or 100 mg/kg of sivelestat (in 0.9% NaCl) was administered intraperitoneally using a 21 G needle.
as §2
BALF was collected by inserting a cannula into a trachea and performing lavage twice with 1 mL of 50 U/mL heparin (in sterile 0.9% NaCl). Usually, about 1.8 mL of BALF was collected from each mouse. The amount of proteins in BALF was determined by a Bradford assay. The level of inflammatory cytokines was determined by the Elisa kit as described above.
A tissue specimen was fixed in 10% neutral buffered formalin for 24 hours and then embedded in paraffin before being cut into a section 4 μm thick. The section was stained firstly with Mayer's hematoxylin and secondly with 1% alcoholic eosin solution (H&E staining). The specimen was mounted with malinol (mounting medium) and scanned using a NanoZoomer-XR digital slide scanner (Hamamatsu Photonics K.K.).
All the scanned images were analyzed using NDP-view2 software (Hamamatsu Photonics K.K.) and Image J software.
LPS (1 mg/kg) or vehicle (control) was administered once into a trachea of a male ICR mouse.
ESD (Evans blue dye) (30 mg/kg) was injected intravenously 6 hours after a CLP operation. Two hours later, ESD was extracted from the lung and liver and the amount thereof was measured (Test A).
A section of the lung tissue was prepared 24 hours after the LPS administration and was subjected to a histopathological examination (H&E staining) (Test B). The lesion area was determined by ImageJ software (Test C). BALF was prepared 48 hours after the LPS administration and the levels of protein (Test D) and inflammatory cytokines (Test E) were determined.

[7] = tested on: mice subjected to cecal ligation and puncture technique (CLP technique); conditions: male ICR mice
Protocol: as §1, §3

[8] = BALF 48 hours after the LPS administration (FIG. 4E)

CC(C)(C)C(=O)Oc1ccc(S(=O)(=O)Nc2ccccc2C(=O)NCC(=O)O)cc1 [sivelestat, sivelestat sodium hydrate, reference compound]
IL-6 level in plasma [1]: failed in suppressing an increase
TNF-α level in plasma [1]: failed in suppressing an increase

lecithinized superoxide dismutase [PC-SOD]
reactive oxygen species in the abdominal cavity (sum intensity, L-012) [2]: suppressed an increase of reactive oxygen species
reactive oxygen species in the lung (sum intensity, L-012) ([3]; LPS, PC-SOD i.v. once before LPS, L-012 6 hours after the LPS administration): suppressed an increase of reactive oxygen species
reactive oxygen species in the lung (sum intensity, L-012) ([3]; MV, PC-SOD i.v. once before MV, L-012 2 hours after the MV treatment): suppressed an increase of reactive oxygen species
lung edema (wet-to-dry weight ratio of the lung) ([4]; drug once immediately before MV, 2 hours after the MV treatment): suppressed lung edema
lung injury (histopathological examination, H&E staining; lesion area) ([4]; lung section 2 hours after the MV treatment (FIG. 5C, D)): suppressed lung injury
lung elastance (total respiratory elastance) ([4]; measured every 30 minutes for 120 minutes): suppressed an increase in lung elastance
IL-6 level in plasma [1]: suppressed an increase
TNF-α level in plasma [1]: suppressed an increase
BUN (blood urea nitrogen) level [5]: suppressed an increase
creatinine level [5]: suppressed an increase
protein in BALF ([6]; BALF 48 hours after the LPS administration (FIG. 4D)): suppressed an increase of protein
IL-6 in BALF [6, 8]: suppressed an increase
IL-10 in BALF [6, 8]: suppressed an increase
TNF-α in BALF [6, 8]: suppressed an increase
histopathological examination of lung tissue (H&E staining) ([6]; lung section 24 hours after the LPS administration (FIG. 4B)): suppressed alveolar hemorrhage, leukocyte infiltration, and lung interstitial edema
lesion area of lung (ImageJ) ([6]; lung section 24 hours after the LPS administration (FIG. 4C)): reduced a lung disorder area
survival rate ([7]; administration 1, 12, 24, and 48 hours after the CLP operation (FIG. 1B)): increased the survival rate
survival rate ([7]; administration immediately before the CLP operation and 12, 24, and 48 hours after (FIG. 1A)): increased the survival rate in a dose-dependent manner
